# Results: PubChem BioAssay (NCI)
#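 Each compound was tested at five concentrations against cells in 96-well plates for 48 hours. GI50 marks 50% less growth. Definition used: TGI = concentration required for complete inhibition of growth.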
# Experiments:
# Assay in all cases: DTP human tumour cell line panel, 48 h
# [1] = test system: SK-MEL-2 melanoma
# [2] = test system: NCI-H460 lung
# [3] = test system: SNB-75 CNS
# [4] = test system: U251 CNS
# [5] = test system: K-562 leukemia
# [6] = test system: RPMI-8226 leukemia
# [7] = test system: LOX IMVI melanoma
# [8] = test system: HCT-116 colon
# [9] = test system: SK-MEL-28 melanoma
# [10] = test system: OVCAR-4 ovarian
Structure (SMILES),GI50 [1],TGI [1],GI50 [2],TGI [2],GI50 [3],TGI [3],GI50 [4],TGI [4],GI50 [5],TGI [5],GI50 [6],TGI [6],GI50 [7],TGI [7],GI50 [8],TGI [8],GI50 [9],TGI [9],TGI [10],GI50 [10]
CC(=O)[CH-]C(=O)c1ccccc1.CC(=O)[CH-]C(=O)c1ccccc1.[CH2-]CCC.[CH2-]CCC.[Sn+4],0.555 µM,1.77 µM,2.11 µM,4.62 µM,0.352 µM,1.18 µM,1.32 µM,2.65 µM,0.331 µM,10.3 µM,0.22 µM,0.567 µM,1.06 µM,2.47 µM,1.38 µM,2.78 µM,–,–,–,–
CC12OC(C(=O)C13CCC3)C1C(=O)c3ccccc3C(=O)C12 (stereo not drawn),> 100 µM,> 100 µM,> 100 µM,> 100 µM,> 100 µM,> 100 µM,55 µM,> 100 µM,58.1 µM,> 100 µM,26.5 µM,> 100 µM,–,–,> 100 µM,> 100 µM,> 100 µM,> 100 µM,–,–
O=[N+]([O-])C1C2C=CC(C2)[C@H]1c1ccc(Cl)cc1Cl (stereo partly drawn),–,> 100 µM,–,> 100 µM,–,> 100 µM,–,> 100 µM,–,> 100 µM,–,69.1 µM,–,> 100 µM,–,> 100 µM,–,> 100 µM,–,–
NC(=O)c1c[se]c(C2OC(COP(=O)(O)CP(=O)(O)OCC3OC(n4cnc5c(N)ncnc54)C(O)C3O)C(O)C2O)n1 (stereo not drawn),–,> 100 µM,–,> 100 µM,–,> 100 µM,–,> 100 µM,–,> 100 µM,–,–,–,–,–,> 100 µM,–,> 100 µM,> 100 µM,–
COc1ccc(C2NCCc3c2[nH]c2ccccc32)cc1 (stereo not drawn),–,–,–,> 100 µM,–,> 100 µM,–,> 100 µM,–,> 100 µM,–,> 100 µM,–,> 100 µM,–,> 100 µM,–,> 100 µM,–,–
Nc1ccn([C@@H]2C(F)=C(CO)[C@@H](O)[C@H]2O)c(=O)n1,> 100 µM,> 100 µM,0.384 µM,> 100 µM,9.94 µM,> 100 µM,2.78 µM,> 100 µM,0.781 µM,> 100 µM,–,–,0.453 µM,> 100 µM,0.395 µM,> 100 µM,6.91 µM,> 100 µM,> 100 µM,23.2 µM
COc1nc2c(c(O)c(C)c(=O)n2OC2OC(COC(C)=O)C(OC(C)=O)C(OC(C)=O)C2OC(C)=O)c(=O)n1C (stereo not drawn),–,> 100 µM,–,> 100 µM,–,> 100 µM,–,> 100 µM,–,> 100 µM,–,–,–,> 100 µM,–,> 100 µM,–,> 100 µM,> 100 µM,–
Cc1ccc(-n2c3c(c4c(CN5CCOCC5)c(O)ccc42)CCc2ccccc2C3=O)cc1,> 100 µM,> 100 µM,65.8 µM,> 100 µM,–,–,> 100 µM,> 100 µM,25.8 µM,> 100 µM,21 µM,> 100 µM,> 100 µM,> 100 µM,> 100 µM,> 100 µM,–,–,–,–
COc1ccc(CC2=NCCc3cc(OC)c(OC)cc32)cc1Br,–,> 100 µM,–,> 100 µM,–,–,–,> 100 µM,–,93.2 µM,–,–,–,30.3 µM,–,–,–,> 100 µM,> 100 µM,–
COc1ccc2c(c1)nc1n2C(c2ccc(F)cc2)SC1 (stereo not drawn),20.4 µM,65 µM,16.1 µM,67.7 µM,25.6 µM,> 100 µM,27.9 µM,83.7 µM,42.3 µM,> 100 µM,14.8 µM,66.3 µM,24.8 µM,61 µM,30.8 µM,> 100 µM,–,–,> 100 µM,33.8 µM
COc1cc2cccc(N=Cc3c(Br)ccc(OC)c3OC(C)C)c2cc1OC,–,> 100 µM,–,> 100 µM,–,89.3 µM,–,> 100 µM,–,92.9 µM,–,63.7 µM,–,–,–,96 µM,–,> 100 µM,> 100 µM,–
CC(C)(C)c1cc(CCC(=O)Nc2ccc(Cl)cc2Cl)nc(N)n1,–,> 100 µM,–,> 100 µM,–,–,–,> 100 µM,–,> 100 µM,–,–,–,> 100 µM,–,> 100 µM,–,> 100 µM,> 100 µM,–
Cn1cc(CO)c2ccccc21,36.2 µM,> 100 µM,30.7 µM,> 100 µM,27.6 µM,> 100 µM,40.3 µM,> 100 µM,17.5 µM,> 100 µM,99.9 µM,> 100 µM,–,–,26.9 µM,> 100 µM,85.9 µM,> 100 µM,> 100 µM,56.5 µM
